The results in this text go back to ChEMBL document CHEMBL3763024, “Development of 3-(4-aminosulphonyl)-phenyl-2-mercapto-3H-quinazolin-4-ones as inhibitors of carbonic anhydrase isoforms involved in tumorigenesis and glaucoma” (Bioorg Med Chem, 2016).

Each structure is given as a SMILES string.

One test has as its target Carbonic anhydrase 9 (Homo sapiens, UniProt Q16790). Kind of test: Inhibition of human recombinant carbonic anhydrase 9 preincubated for 15 mins by stopped flow CO2 hydration assay.
The next test deals with Carbonic anhydrase 1 (Homo sapiens, UniProt P00915). The test is described as follows: Inhibition of human recombinant carbonic anhydrase 1 preincubated for 15 mins by stopped flow CO2 hydration assay.
Chain of Carbonic anhydrase 1 (P00915 whole entry): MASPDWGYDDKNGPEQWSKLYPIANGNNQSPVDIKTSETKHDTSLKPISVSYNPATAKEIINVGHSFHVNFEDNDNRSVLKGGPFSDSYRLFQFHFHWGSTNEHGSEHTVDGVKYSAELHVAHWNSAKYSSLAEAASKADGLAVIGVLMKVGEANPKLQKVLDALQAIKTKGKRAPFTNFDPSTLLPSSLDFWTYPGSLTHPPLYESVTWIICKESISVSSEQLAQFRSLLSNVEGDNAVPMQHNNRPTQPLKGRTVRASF

For the compound `NS(=O)(=O)c1ccc(-n2c(S)nc3c(Cl)cccc3c2=O)cc1`, on Carbonic anhydrase 9, the Ki was determined as 43.9 nM.
The same measure, in the same setting: to `COc1cccc2c(=O)n(-c3ccc(S(N)(=O)=O)cc3)c(S)nc12` belongs 5.1 nM.
On to `NS(=O)(=O)c1ccc(-n2c(S)nc3cc(Cl)ccc3c2=O)cc1`, for which the Ki on Carbonic anhydrase 9 was determined as 157 nM.
`COc1cc2c(=O)n(-c3ccc(S(N)(=O)=O)cc3)c(S)nc2c(OC)c1OC`: the Ki on Carbonic anhydrase 9 was determined as 50.4 nM.
Consider `NS(=O)(=O)c1ccc(-n2c(S)nc3ccc(Cl)cc3c2=O)cc1`, for which, at Carbonic anhydrase 9, the Ki turned out to be 34.9 nM.
In the case of `COc1ccc2nc(S)n(-c3ccc(S(N)(=O)=O)cc3)c(=O)c2c1`, the Ki at Carbonic anhydrase 9 was 3.7 nM.
For `NS(=O)(=O)c1ccc(-n2c(S)nc3cc(Br)ccc3c2=O)cc1`, the Ki at Carbonic anhydrase 9 is 163 nM.
`COc1ccc2c(=O)n(-c3ccc(S(N)(=O)=O)cc3)c(S)nc2c1`: the Ki at Carbonic anhydrase 1 was > 10000 nM.
On to `Cc1cc(C)c2nc(S)n(-c3ccc(S(N)(=O)=O)cc3)c(=O)c2c1`, for which the Ki on Carbonic anhydrase 9 amounted to 17.5 nM.
Consider `NS(=O)(=O)c1ccc(-n2c(S)nc3c(I)cccc3c2=O)cc1`, for which the Ki on Carbonic anhydrase 9 is 14.5 nM.
For the compound `NS(=O)(=O)c1ccc(-n2c(S)nc3c(Br)cccc3c2=O)cc1`, the Ki on Carbonic anhydrase 9 was found to be 4.7 nM.
For `NS(=O)(=O)c1ccc(-n2c(S)nc3ccc(Br)cc3c2=O)cc1`, on Carbonic anhydrase 9, the Ki was 275 nM.
On to `COc1ccc2c(=O)n(-c3ccc(S(N)(=O)=O)cc3)c(S)nc2c1OC`, for which the Ki on Carbonic anhydrase 9 was 49.3 nM.
On the same count and under the same terms, the value for `Cc1cccc2c(=O)n(-c3ccc(S(N)(=O)=O)cc3)c(S)nc12` was 35.6 nM; that for `NS(=O)(=O)c1ccc(-n2c(S)nc3c(F)cccc3c2=O)cc1` was 45.4 nM.
With `Cc1ccc2nc(S)n(-c3ccc(S(N)(=O)=O)cc3)c(=O)c2c1`, the Ki on Carbonic anhydrase 9 stood at 16.2 nM.

Broadly, the Ki is a measure of affinity in units of concentration, obtained from inhibition or displacement.
